# Measurements reported in publication PMC8151276, “An Integrated Approach toward NanoBRET Tracers for Analysis of GPCR Ligand Engagement” (Molecules, 2021).
# What was measured:
# GALR2 = biological target: T1, GALR2 (Homo sapiens, UniProt O43603); test: NanoBRET screen HiBiT-GALR2 in HEK293; assay type: binding; settings: GALR2
# T1 construct: purchased Promega (in-house HiBiT-GPCR construct library, NanoBRET)
# T1 sequence (O43603 1-387): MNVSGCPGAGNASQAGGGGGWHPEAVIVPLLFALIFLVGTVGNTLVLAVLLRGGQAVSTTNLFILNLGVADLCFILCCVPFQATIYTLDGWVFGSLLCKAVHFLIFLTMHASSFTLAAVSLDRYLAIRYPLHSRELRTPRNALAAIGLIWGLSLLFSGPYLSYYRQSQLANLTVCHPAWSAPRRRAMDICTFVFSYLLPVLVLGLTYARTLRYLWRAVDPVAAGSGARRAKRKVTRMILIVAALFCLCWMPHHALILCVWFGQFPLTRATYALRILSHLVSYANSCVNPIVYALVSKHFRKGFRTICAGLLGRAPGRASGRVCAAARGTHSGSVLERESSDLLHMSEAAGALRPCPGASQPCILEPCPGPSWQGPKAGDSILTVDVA
# Method: (§1) Each tracer candidate was screened across the entire library of HiBiT-GPCR constructs using NanoBRET as the detection modality. As depicted in Figure 4A, the specificity of interactions was evaluated through decrease in BRET due to competitive displacement of a bound tracer by excess parental compound. Each tracer was analyzed for binding to each HiBiT-GPCR fusion in the absence and in the presence of competing parental compound. Briefly, HEK293 cells were transfected with HiBiT-GPCR constructs diluted into promoterless DNA to reduce expression and maximize translocation to the cell surface. Each tracer candidate was then screened at concentrations of 1 μM and 0.1 μM across cells expressing these fusions. Cells were treated for 1.5 h with tracer either alone or in the presence of 20 μM competing parental compound (i.e., control). BRET was measured upon addition of purified LgBiT and subsequent complementation with HiBiT genetically fused to a GPCR. The specificity of interactions was assessed through a decrease in BRET signal due to competitive displacement of the bound tracer. To further gauge the robustness of these interactions, the fold response over the control (i.e., BRETtracer/BRETcontrol) was calculated. We chose a 1.5-fold response, which translates to ≥7-fold signal over noise as the minimal threshold required to score an interaction as positive. […]. Below we highlight the screening results obtained for our exemplary fluorescent tracers based on Clozapine, Amitriptyline and AZD1283.
# (§2) HiBiT-GPCR DNA constructs were diluted in 10 mM Tris pH 8 to a final concentration of 0.01 μg/μL, arrayed in 96-well plates and stored at −20 °C. For transfection, HEK293 cells were suspended in Opti-MEM (without phenol red) supplemented with 2% fetal bovine serum (Seradigm) and 100 units/mL penicillin–streptomycin (Gibco) at a final concentration of 220,000 cells/mL and dispensed into white 96-well plates at 90 μL/well. Subsequent transfections and screens were carried using an Agilent Bravo Automated Liquid Handling Platform. First, the 96-well HiBiT DNA arrays were diluted 25-fold in Opti-MEM (without serum or phenol red) to a final concentration of 0.0004 μg/μL and 20 μL of the diluted DNAs were transferred into new 96-well plates. Next, promoterless carrier DNA (1 μg/μL) was diluted 25-fold (0.04 μg/μL) and then dispensed into the diluted arrays at 20 μL/well. Following brief mixing, Viafect transfection reagent (Promega) diluted 16-fold into Opti-MEM was dispensed into the plates at 40 μL/well. After mixing by pipetting, plates were incubated for 10 min on the pipetting station deck. The DNA-transfection reagent complexes were then added to plates containing cells. To facilitate the screen, 10 μL of DNA-transfection reagent complexes were added in duplicates to the top 4 and bottom 4 rows, resulting in two identical 48-well arrays per plate. Plates with transfected cells were incubated for 18–20 h at 37 °C/5% CO2. A screen of each tracer across the entire library using two different concentrations requires duplicate plates of transfected cells. Depending on the number of tracers being screened, transfections can be scaled up using the same ratios. The next day, for each tracer, four 20× screening solutions in tracer dilution buffer (Promega) were prepared: two duplicates at final concentration of 20 μM and two duplicates at a final concentration of 2 μM. A competing unmodified compound was added to one of each duplicate at a final concentration of 400 μM. The four resulting solutions were diluted 4-fold in Opti-MEM without serum or phenol red to generate 5× solutions (5 µM and 0.5 µM tracer +/− 100 μM competing compound). To screen the library, a BioTek MultiFlo FX liquid dispenser was used to dispense 22.5 µL of tracer solution to the top 4 rows and 22.5 µL tracer + competing compound solution to the 4 bottom rows. Plates were briefly mixed on an orbital shaker and incubated for 1.5 h at room temperature. […]
# BDKRB2 = biological target: T2, BDKRB2 (Homo sapiens, UniProt P30411); test: NanoBRET screen HiBiT-BDKRB2 in HEK293; assay type: binding; settings: BDKRB2
# T2 construct: purchased Promega (in-house HiBiT-GPCR construct library, NanoBRET)
# T2 sequence (P30411 1-391): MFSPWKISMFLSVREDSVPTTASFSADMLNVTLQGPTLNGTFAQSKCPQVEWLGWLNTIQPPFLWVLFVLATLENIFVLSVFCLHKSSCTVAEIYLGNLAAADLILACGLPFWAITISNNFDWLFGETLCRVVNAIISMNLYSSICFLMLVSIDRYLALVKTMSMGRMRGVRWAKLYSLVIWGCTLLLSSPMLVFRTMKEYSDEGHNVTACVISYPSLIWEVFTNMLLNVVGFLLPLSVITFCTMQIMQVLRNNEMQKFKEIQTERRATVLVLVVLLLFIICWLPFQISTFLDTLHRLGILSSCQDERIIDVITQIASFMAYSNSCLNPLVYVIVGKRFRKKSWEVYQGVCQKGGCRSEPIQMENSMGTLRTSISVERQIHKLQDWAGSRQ
# Method: as §1, §2
SMILES,NanoBRET Fold Response (GALR2; tracer 0.1μM),NanoBRET Fold Response (GALR2; tracer 1μM),NanoBRET Fold Response (BDKRB2; tracer 0.1μM),NanoBRET Fold Response (BDKRB2; tracer 1μM)
CC(C)N(CC[C@H](c1ccccc1)c1cc(CCNC(=O)CCOCCOCCOCCOCCNC(=O)CCc2ccc3n2[B-](F)(F)[N+]2=C(c4ccc[nH]4)C=CC2=C3)ccc1O)C(C)C [Tolterodine-2-NB590],0.97,1.09,0.96,0.95
CC(C)N(CC[C@H](c1ccccc1)c1cc(CCNC(=O)c2ccc(CNC(=O)CCc3ccc4n3[B-](F)(F)[N+]3=C(c5ccc[nH]5)C=CC3=C4)cc2)ccc1O)C(C)C [Tolterodine-BZ-NB590],0.99,1.08,1.04,1.08
CCCn1c(=O)c2[nH]c(-c3ccc(OCC(=O)NCCNC(=O)CCOCCNC(=O)c4ccc(CNC(=O)CCc5ccc6n5[B-](F)(F)[N+]5=C(c7ccc[nH]7)C=CC5=C6)cc4)cc3)nc2n(CCC)c1=O [XAC-3-NB590],1.07,0.96,1.00,1.14
